Data taken from patent US9212165B2, “Bicarbocyclic and tricarbocyclic ethynyl derivatives and uses of same” (H. Lundbeck A/S, priority 2011, dated 2015).

Molecular target: mGluR5 (MPEP binding site) (Homo sapiens (Human), UniProt P41594)
Assay: Radioligand binding assay (MPEP site radioligand, membrane filtration)
Settings: 5 nM radioligand binding to MPEP site; Cheng-Prusoff
Experimental: Binding assays were performed as described in [J. A. O'Brien et al. Mol Pharmacol., 2003, 64, 731-740] with slight modifications, including that a radioligand that binds to the […] (MPEP) binding site was used in place of [^3H] MPEP. Briefly, after thawing, the membrane homogenates were resuspended in 50 mM Tris-HCl and 0.9% NaCl binding buffer at pH 7.4 to a final assay concentration of 20 μg protein/well for radioligand filtration binding. Incubations included 5 nM radioligand, membranes and either buffer or varying concentrations of compound. Samples were incubated for 60 min at room temperature with shaking. Non-specific binding was defined with 10 μM cold MPEP when using the radioligand. After incubation, samples were filtered over a GF/C filter (presoaked in 0.25% polyethyleneimine (PEI)) and then washed 4 times using a Tomtec® Harvester 96® Mach III cell harvester (Tomtec, Hamden, Conn.) with 0.5 mL ice-cold 50 mM Tris-HCl (pH 7.4).
IC50 values were derived from the inhibition curve and Ki values were calculated according to the Cheng and Prusoff equation of Ki=IC50/(1+[L]/Kd) described in [Y. Cheng and W. H. Prusoff Biochem. Pharmacal. 1973, 22, 3099-3108] where [L] is the concentration of radioligand and Kd is its dissociation constant at the receptor, derived from the saturation isotherm.

Sequence of mGluR5 (MPEP binding site) (P41594 21-1212): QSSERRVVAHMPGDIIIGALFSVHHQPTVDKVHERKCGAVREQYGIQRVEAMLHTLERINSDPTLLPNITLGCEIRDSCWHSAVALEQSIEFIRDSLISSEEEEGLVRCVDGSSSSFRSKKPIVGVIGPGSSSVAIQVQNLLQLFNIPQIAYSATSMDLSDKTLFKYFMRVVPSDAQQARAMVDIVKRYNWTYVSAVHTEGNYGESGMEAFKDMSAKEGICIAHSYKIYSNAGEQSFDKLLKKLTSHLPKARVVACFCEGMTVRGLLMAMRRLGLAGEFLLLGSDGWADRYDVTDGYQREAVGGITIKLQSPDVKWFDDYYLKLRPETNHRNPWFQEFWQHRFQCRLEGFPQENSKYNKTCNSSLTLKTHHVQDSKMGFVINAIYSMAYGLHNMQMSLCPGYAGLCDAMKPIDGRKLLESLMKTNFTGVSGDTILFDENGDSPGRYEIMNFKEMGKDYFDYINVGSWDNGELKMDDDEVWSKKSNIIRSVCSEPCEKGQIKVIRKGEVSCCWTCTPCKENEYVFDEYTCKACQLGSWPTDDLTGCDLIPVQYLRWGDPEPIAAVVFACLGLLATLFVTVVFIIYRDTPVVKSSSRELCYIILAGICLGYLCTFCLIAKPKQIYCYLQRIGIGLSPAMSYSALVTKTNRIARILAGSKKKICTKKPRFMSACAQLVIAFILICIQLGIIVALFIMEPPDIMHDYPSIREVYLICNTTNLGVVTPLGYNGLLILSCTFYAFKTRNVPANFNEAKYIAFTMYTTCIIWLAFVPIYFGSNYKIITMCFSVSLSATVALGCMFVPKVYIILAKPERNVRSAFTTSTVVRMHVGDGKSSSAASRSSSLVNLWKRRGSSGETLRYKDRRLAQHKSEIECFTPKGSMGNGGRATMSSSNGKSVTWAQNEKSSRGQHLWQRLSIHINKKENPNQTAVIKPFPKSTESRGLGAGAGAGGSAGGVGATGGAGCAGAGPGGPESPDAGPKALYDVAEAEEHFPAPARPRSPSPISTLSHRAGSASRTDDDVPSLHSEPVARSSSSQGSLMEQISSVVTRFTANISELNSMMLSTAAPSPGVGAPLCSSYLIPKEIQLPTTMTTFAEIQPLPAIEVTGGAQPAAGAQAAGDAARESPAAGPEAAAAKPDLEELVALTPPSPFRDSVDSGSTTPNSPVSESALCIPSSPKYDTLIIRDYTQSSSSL

SMILES	Ki
O=C(NC12CCCC(C#Cc3cccc(F)c3)(CC1)C2)c1cnccn1 (stereo not shown) [Example 3, pyrazine-2-carboxylic acid [5-(3-fluoro-phenylethynyl)-bicyclo[3.2.1]oct-1-yl]-amide]	3 nM
O=C(NC12CCCC(C#Cc3cnccn3)(CC1)C2)c1cccc(Cl)c1 (stereo not shown) [Example 13, 3-Chloro-N-(5-pyrazin-2-ylethynyl-bicyclo[3.2.1]oct-1-yl)-benzamide]	91 nM
Cc1nccc(C(=O)N[C@@]23CCC[C@@](C#Cc4ccccn4)(CC2)C3)n1 [Example 28, 2-methyl-N-((1S,5R)-5-(pyridin-2-ylethynyl)bicyclo[3.2.1]octan-1-yl)pyrimidine-4-carboxamide]	17 nM
Cn1ccc(C(=O)N[C@]23CCC[C@](C#Cc4cnccn4)(CC2)C3)n1 [Example 44, 1-methyl-N-((1R,5S)-5-(pyrazin-2-ylethynyl)bicyclo[3.2.1]octan-1-yl)-1H-pyrazole-3-carboxamide]	34 nM
Cn1ccc(C(=O)N[C@@]23CCC[C@@](C#Cc4cnccn4)(CC2)C3)n1 [Example 49, 1-methyl-N-((1S,5R)-5-(pyrazin-2-ylethynyl)bicyclo[3.2.1]octan-1-yl)-1H-pyrazole-3-carboxamide]	590 nM

More lines, in order of falling Ki, values ahead:

Ki	SMILES
1300 nM	Cc1cncc(C#CC23CC4CC(C2)CC(NC(=O)c2cccc(F)c2)(C4)C3)n1 [Example 56, 3-fluoro-N-[3-(6-methylpyrazin-2-ylethynyl)-1-adamantyl]benzamide]
120 nM	Cc1csc(C#CC23CC4CC(C2)CC(NC(=O)c2ccn(C)n2)(C4)C3)n1 [Example 81, 1-methyl-N-[3-(4-methylthiazol-2-ylethynyl)-1-adamantyl]-1H-pyrazole-3-carboxamide]
38 nM	Cc1csc(C(=O)N[C@@]23CCC[C@@](C#Cc4cnccn4)(CC2)C3)n1 [Example 50, 4-methyl-N-((1S,5R)-5-(pyrazin-2-ylethynyl)bicyclo[3.2.1]octan-1-yl)thiazole-2-carboxamide]
35 nM	O=C(N[C@@]12CCC[C@@](C#Cc3ccccn3)(CC1)C2)c1ccc(F)cn1 [Example 30, 5-fluoro-N-((1S,5R)-5-(pyridin-2-ylethynyl)bicyclo[3.2.1]octan-1-yl)picolinamide]
11 nM	O=C(N[C@]12CCC[C@](C#Cc3ccccn3)(CC1)C2)c1ccc(F)cn1 [Example 20, 5-fluoro-N-((1R,5S)-5-(pyridin-2-ylethynyl)bicyclo[3.2.1]octan-1-yl)picolinamide]
10 nM	Cc1nccc(C(=O)N[C@]23CCC[C@](C#Cc4ccccn4)(CC2)C3)n1 [Example 18, 2-methyl-N-((1R,5S)-5-(pyridin-2-ylethynyl)bicyclo[3.2.1]octan-1-yl)pyrimidine-4-carboxamide]
6.2 nM	Cc1csc(C(=O)N[C@]23CCC[C@](C#Cc4cnccn4)(CC2)C3)n1 [Example 45, 4-methyl-N-((1R,5S)-5-(pyrazin-2-ylethynyl)bicyclo[3.2.1]octan-1-yl)thiazole-2-carboxamide]
4.7 nM	O=C(NC12CC3CC(CC(C#Cc4ccccn4)(C3)C1)C2)c1cnccn1 [Example 71, N-[3-(pyridin-2-ylethynyl)-1-adamantyl]pyrazine-2-carboxamide]
